Results from patent US6762173B2 (priority 1997, dated 2004).
Read-outs that look alike come from different tables or passages of the source.

Assays:
[1] = system: Phytophthora infestans; format: in vivo; settings: potato Bintje, FIG. 4
[2] = system: Phytophthora infestans; format: in vivo; settings: potato Bintje, FIG. 1
[3] = system: Plasmopara viticola; test: In vivo greenhouse test on downy mildew of grapevine, preventive treatment at 4 days (Example 5); settings: grapevine Chardonnay, FIG. 2
Experimental: In Vivo Greenhouse Test of the Combination of Compound (I) with Compound (IIA), Propamocarb, on Plasmopara viticola (Downy Mildew of Grapevine) by Preventive Treatment at 4 Days:
A soluble concentrate containing 722 g/l of propamocarb and a 70% dispersible granule of compound (I) are used.
Dilute suspensions corresponding to a spraying volume of 500 l of spraying liquid per ha are prepared from these compositions by dilution with water.
These 2 liquids are mixed together so as to obtain a ratio: compound (I)/propamocarb, equal to: 0.015−0.125−0.5.
Cuttings of grapevine (Vitis vinifera), Chardonnay variety, are cultivated in pots. When these plants are 2 months old, they are treated by spraying with the above liquids, taken individually or as a mixture.
After 4 days, each plant is contaminated by spraying with an aqueous suspension of spores of Plasmopara viticola obtained from sporulated leaves contaminated 7 days beforehand. […]
The results are read 7 days after the contamination, by comparison with the control plants, that is to say untreated but contaminated plants.
The surface area of leaves showing a whitish appearance on their underside, corresponding to attack by the fungus, is assessed visually and the degree of attack is obtained by dividing by the total foliar surface.
The efficacy is then calculated using the Abbott formula and using the result on the control plant. […]

[4] = system: Phytophthora infestans; format: in vivo; settings: potato Bintje lamellae, preventive 4 days, FIG. 3
[5] = system: Botrytis cinerea; test: In vivo greenhouse test against grey rot of grapevine (Example 8); settings: FIG. 5
Experimental: In Vivo Greenhouse Test of a Composition Comprising Compound (I) and Compound (IIC) (Cyprodinil) Against Grey Rot of Grapevine (Botrytis cinerea):
(§1) A 70% dispersible granule of compound (I) and a 75% dispersible granule of cyprodinil are used.
(§2) Dilute suspensions corresponding to a spraying volume of 1000 l of spraying liquid per ha are prepared from these compositions by dilution with water.
These 2 liquids are mixed together so as to obtain a compound (I)/cyprodinil ratio equal to 0.2.
Grapevine plants (Chardonnay variety) are cultivated in pots. When these plants are 2 months old, they are treated by spraying with a liquid comprising one of the compounds (I) and (IIC), either individually or as a mixture in the ratio indicated above.
After 24 hours, leaves are cut off the treated plants, placed on moistened filter paper in a Petri dish and are contaminated by applying 10 drops of an aqueous suspension of spores (containing 150,000 sp/cm^3) of Botrytis cinerea. […]
For this, the number of drops of Botrytis cinerea suspension from which a grey mark, corresponding to attack by the phytopathogenic fungus, developed is counted for a grapevine leaf. […]
(§3) The efficacy of the treatment (expressed in %) is calculated according to the so-called Abbott formula. […]

[6] = system: Alternaria brassicae; test: In vivo greenhouse test against Alternaria rot in radish (Example 9); settings: radish Pernot plantules, contamination 24 hours after treatment, FIG. 6
Experimental: In Vivo Greenhouse Test of a Composition Comprising Compound (I) and Compound (IIC) (Cyprodinil) Against Alternaria Rot in Radish (Alternaria brassicae):
as §1, §2
These 2 liquids are mixed together so as to obtain a compound (I)/cyprodinil ratio equal to 0.2−0.5−1.
Radish plantules (Pernot variety) are cultivated in pots. When these plantules have reached the 2-leaf cotyledon stage, they are treated by spraying with a liquid comprising compounds (I) and (IIC), either individually or as a mixture in the ratios indicated above.
24 hours after treatment, contamination is carried out by spraying with an aqueous suspension of spores (containing 40,000 sp/cm^3) of Alternaria brassicae.
After this contamination, the treated and contaminated plantules are placed for 10 days at about 20° C. in an atmosphere of saturated humidity. […]
For this, the percentage of attack of the cotyledon leaves by the fungus is assessed visually, the said attack being recognizable by brown necrosis marks. From the degree of attack thus obtained (expressed in %), the efficacy is calculated according to the Abbott formula with reference to the degree of attack of the control. […]

[7] = system: Uncinula necator; test: In vivo greenhouse test against powdery mildew of grapevine (Example 10); settings: FIG. 7
Experimental: (§4) In Vivo Greenhouse Test of a Composition Comprising Compound (I) and Compound (IIF) (Spiroxamine) Against Powdery Mildew of Grapevine (Uncinula necator):
A suspension of 60 mg comprising compound (I) in a liquid mixture consisting of 0.3 ml of a surfactant (oleate of polyoxyethylenated derivative of sorbitan) diluted to 10% in water and 60 ml of water is prepared.
An emulsifiable concentrate containing 500 g/l of spiroxamine is used.
Dilute suspensions corresponding to a spraying volume of 250 l of spraying liquid per ha are prepared from these compositions by dilution with water.
These 2 liquids are mixed together so as to obtain a compound (I)/spiroxamine ratio equal to 0.33:1:3.
Grapevine plants (Chardonnay variety) are cultivated in pots. When these plants are 2 months old, they are treated by spraying with a liquid comprising one of the compounds (I) and (IIF), either individually or as a mixture in one of the ratios indicated above.
After 24 hours, the grapevine leaves are contaminated by dusting them with powdery mildew spores (Uncinula necator) obtained from naturally contaminated leaves.
After this contamination, the treated and contaminated grapevine plants are placed for 15 days at 20° C. at a relative humidity of about 70%. […]
as §3

[8] = system: Uncinula necator; test: In vivo greenhouse test against powdery mildew of grapevine, read 22 days after contamination (Example 11); settings: FIG. 8
Text: as §4
Example 10 is repeated, setting the compound (I)/spiroxamine ratio to 0.11:0.33 and 1 and observing the results 22 days after contamination.

[9] = system: Plasmopara viticola; test: In vivo greenhouse test of ternary composition against downy mildew of grapevine, treatment 24 h after contamination (Example 12); settings: grapevine Chardonnay, compound (I) alone, FIG. 9
[10] = contamination 4 days after treatment

CSC(=O)c1cccc2nnsc12 [CGA 245704, S-methyl ester of 1,2,3-benzothiadiazole-7-carbothioic acid]
efficacy when applied alone ([1]; under the test conditions): no efficacy

CSC1=N[C@@](C)(c2ccccc2)C(=O)N1Nc1ccccc1 [compound (I), (4S)-4-methyl-2-methylthio-4-phenyl-1-phenyl-amino-2-imidazolin-5-one]
dose alone which needs to be applied to destroy 70% of the parasite [2, 10]: 36 mg/L
dose alone which needs to be applied to obtain 90% efficacy ([3]; preventive 4 days): 8.2 mg/L
dose alone which needs to be applied to obtain 90% destruction of the parasite [4]: 8.7 mg/L
dose alone which needs to be applied to destroy 70% of the parasite [1, 10]: 177 mg/L
efficacy when applied alone ([5]; grapevine leaves, under the test conditions): no efficacy
dose alone which needs to be applied to obtain 70% destruction of the parasite [6]: 167 mg/L
efficacy when applied alone ([7]; grapevine, under the test conditions): no efficacy
efficacy when applied alone ([8]; grapevine, under the test conditions, 22 days): no efficacy
dose alone which needs to be applied to obtain 70% destruction of the parasite [9]: 36 mg/L

Cc1cc(C2CC2)nc(Nc2ccccc2)n1 [cyprodinil, 2-phenylamino-4-cyclopropyl-6-methyl-pyrimidine]
dose alone which needs to be applied to destroy 90% of the parasite ([5]; grapevine Chardonnay cut leaves, contamination 24 hours after treatment): 73 mg/L
dose alone which needs to be applied to obtain 70% destruction of the parasite [6]: 178 mg/L

CCCOC(=O)NCCCN(C)C [propamocarb, propyl 3-(dimethylamino)propyl carbamate]
efficacy when applied alone ([3]; under the test conditions): no efficacy
dose alone which needs to be applied to obtain 90% destruction of the parasite [4]: 553 mg/L

O=C([O-])c1ccccc1O.[Na+] [sodium salt of salicylic acid]
efficacy when applied alone ([2]; under the test conditions): no efficacy

CCCN(CC)CC1COC2(CCC(C(C)(C)C)CC2)O1 (centres unmarked) [spiroxamine, 8-t-butyl-2-(N-ethyl-N-n-propylamino)methyl-1,4-dioxaspiro[4.5]decane]
dose alone which needs to be applied to destroy 70% of the parasite ([7]; grapevine Chardonnay, read 15 days after contamination): 6.6 g/ha
dose alone which needs to be applied to destroy 70% of the parasite ([8]; grapevine Chardonnay, read 22 days after contamination): 61 g/ha
